From patent US20230085307A1, “PYRIDAZINONE COMPOUND AND HERBICIDE” (NISSAN CHEMICAL CORPORATION, priority 2019, published 2023)

Legend:
southern crabgrass [1] = assay: Test Example 5: herbicidal effect by foliage application, plastic box (Table 20, symbol F); assay type: in vivo, southern crabgrass (Digitaria ciliaris); conditions: foliage application, 320 g/ha, evaluated three weeks after application
How it was run: (§1)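 Sow seeds spot-wise in sterilized diluvial soil; cover with ~1.5 cm soil. Grow 14 days in greenhouse, 25° C. to 30° C. Spray foliage with emulsion diluted to predetermined amount. Rate effect after 3 weeks.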

windgrass [2] = assay: Test Example 5: herbicidal effect by foliage application, plastic box (Table 20, symbol L); assay type: in vivo, windgrass (Apera spica-venti); conditions: foliage application, 320 g/ha, evaluated three weeks after application
How it was run: as §1

blackgrass [3] = assay: Test Example 4: herbicidal effect by soil treatment (Table 19, symbol J); assay type: in vivo, blackgrass (Alopecurus myosuroides)
How it was run: (§2)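 Applied as a water-diluted emulsion, the compound was sprayed onto soil covering newly sown seeds. Evaluation came three weeks after application, in a greenhouse held at 25° C. to 30° C.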

lambsquarters [4] = assay: Test Example 5: herbicidal effect by foliage application, plastic box (Table 20, symbol O); assay type: in vivo, lambsquarters (Chenopodium album); conditions: foliage application, 320 g/ha, evaluated three weeks after application
How it was run: as §1

redroot pigweed [5] = assay: Test Example 5: herbicidal effect by foliage application, plastic box (Table 20, symbol N); assay type: in vivo, redroot pigweed (Amaranthus retroflexus); conditions: foliage application, 320 g/ha, evaluated three weeks after application
How it was run: as §1

barnyard grass [6] = assay: Test Example 5: herbicidal effect by foliage application, plastic box (Table 20, symbol H); assay type: in vivo, barnyard grass (Echinochloa crus-galli); conditions: foliage application, 320 g/ha, evaluated three weeks after application
How it was run: as §1

rice flat sedge = assay: Test Example 3: herbicidal effect by foliage application, Wagner pot (Table 18, symbol E); assay type: in vivo, rice flat sedge (Cyperus iria)
How it was run: (§3)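 Plants were sown in alluvial soil held under 0.1–0.5 cm standing water and grown 14 days in a greenhouse at 25–30 °C. An emulsifiable formulation, water-diluted to the set dose, was then sprayed onto the foliage, and effects were scored three weeks later using previously defined criteria.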

velvetleaf [7] = assay: Test Example 5: herbicidal effect by foliage application, plastic box (Table 20, symbol M); assay type: in vivo, velvetleaf (Abutilon theophrasti); conditions: foliage application, 320 g/ha, evaluated three weeks after application
How it was run: as §1

persian speedwell [8] = assay: Test Example 5: herbicidal effect by foliage application, plastic box (Table 20, symbol R); assay type: in vivo, Persian speedwell (Veronica persica); conditions: foliage application, 320 g/ha, evaluated three weeks after application
How it was run: as §1

green foxtail [9] = assay: Test Example 4: herbicidal effect by soil treatment (Table 19, symbol G); assay type: in vivo, green foxtail (Setaria viridis)
How it was run: as §2

chickweed [10] = assay: Test Example 5: herbicidal effect by foliage application, plastic box (Table 20, symbol P); assay type: in vivo, common chickweed (Stellaria media); conditions: foliage application, 320 g/ha, evaluated three weeks after application
How it was run: as §1

wild oat [11] = assay: Test Example 5: herbicidal effect by foliage application, plastic box (Table 20, symbol I); assay type: in vivo, wild oat (Avena fatua); conditions: foliage application, 320 g/ha, evaluated three weeks after application
How it was run: as §1

redroot pigweed [12] = assay: Test Example 4: herbicidal effect by soil treatment (Table 19, symbol N); assay type: in vivo, redroot pigweed (Amaranthus retroflexus)
How it was run: as §2

windgrass [13] = assay: Test Example 4: herbicidal effect by soil treatment (Table 19, symbol L); assay type: in vivo, windgrass (Apera spica-venti)
How it was run: as §2

blackgrass [14] = assay: Test Example 5: herbicidal effect by foliage application, plastic box (Table 20, symbol J); assay type: in vivo, blackgrass (Alopecurus myosuroides); conditions: foliage application, 320 g/ha, evaluated three weeks after application
How it was run: as §1

chickweed [15] = assay: Test Example 4: herbicidal effect by soil treatment (Table 19, symbol P); assay type: in vivo, common chickweed (Stellaria media)
How it was run: as §2

Italian ryegrass [16] = assay: Test Example 5: herbicidal effect by foliage application, plastic box (Table 20, symbol K); assay type: in vivo, Italian ryegrass (Lolium multiflorum); conditions: foliage application, 320 g/ha, evaluated three weeks after application
How it was run: as §1

Italian ryegrass [17] = assay: Test Example 4: herbicidal effect by soil treatment (Table 19, symbol K); assay type: in vivo, Italian ryegrass (Lolium multiflorum)
How it was run: as §2

wild oat [18] = assay: Test Example 4: herbicidal effect by soil treatment (Table 19, symbol I); assay type: in vivo, wild oat (Avena fatua)
How it was run: as §2

persian speedwell [19] = assay: Test Example 4: herbicidal effect by soil treatment (Table 19, symbol R); assay type: in vivo, Persian speedwell (Veronica persica)
How it was run: as §2

velvetleaf [20] = assay: Test Example 4: herbicidal effect by soil treatment (Table 19, symbol M); assay type: in vivo, velvetleaf (Abutilon theophrasti)
How it was run: as §2

lambsquarters [21] = assay: Test Example 4: herbicidal effect by soil treatment (Table 19, symbol O); assay type: in vivo, lambsquarters (Chenopodium album)
How it was run: as §2

barnyard grass [22] = assay: Test Example 3: herbicidal effect by foliage application, Wagner pot (Table 18, symbol H); assay type: in vivo, barnyard grass (Echinochloa crus-galli)
How it was run: as §3

Chinese sprangletop = assay: Test Example 3: herbicidal effect by foliage application, Wagner pot (Table 18, symbol D); assay type: in vivo, chinese sprangletop (Leptochloa chinensis)
How it was run: as §3

barnyard grass [23] = assay: Test Example 4: herbicidal effect by soil treatment (Table 19, symbol H); assay type: in vivo, barnyard grass (Echinochloa crus-galli)
How it was run: as §2

southern crabgrass [24] = assay: Test Example 4: herbicidal effect by soil treatment (Table 19, symbol F); assay type: in vivo, southern crabgrass (Digitaria ciliaris)
How it was run: as §2

green foxtail [25] = assay: Test Example 5: herbicidal effect by foliage application, plastic box (Table 20, symbol G); assay type: in vivo, green foxtail (Setaria viridis); conditions: foliage application, 320 g/ha, evaluated three weeks after application
How it was run: as §1

[26] = amount of applied herbicide 320 g/ha

SMILES: Cc1nn(C)c(=O)c(-c2c(-c3ccc(Cl)cc3)sc3ccc(Cl)cc23)c1O [2-099]
- herbicidal effect on F: southern crabgrass (southern crabgrass [1]): 5 (Herbicidal rate of 90% or more (almost completely withered))
- herbicidal effect on L: windgrass (windgrass [2]): 5 (Herbicidal rate of 90% or more (almost completely withered))
- herbicidal effect rating, J: blackgrass (blackgrass [3]; 320 g/ha): 2 (Herbicidal rate of 20% or more and less than 40%)
- herbicidal effect on O: lambsquarters (lambsquarters [4]): 5 (Herbicidal rate of 90% or more (almost completely withered))
- herbicidal effect on N: redroot pigweed (redroot pigweed [5]): 5 (Herbicidal rate of 90% or more (almost completely withered))
- herbicidal effect on H: barnyard grass (barnyard grass [6]): 5 (Herbicidal rate of 90% or more (almost completely withered))
- herbicidal effect on E (rice flat sedge), rating 0-5 (rice flat sedge; 320 g/ha): 5 (Herbicidal rate of 90% or more (almost completely withered))
- herbicidal effect on M: velvetleaf (velvetleaf [7]): 5 (Herbicidal rate of 90% or more (almost completely withered))
- herbicidal effect on R: persian speedwell (persian speedwell [8]): 5 (Herbicidal rate of 90% or more (almost completely withered))
- herbicidal effect rating, G: green foxtail (green foxtail [9]; 320 g/ha): 2 (Herbicidal rate of 20% or more and less than 40%)
- herbicidal effect on P: chickweed (chickweed [10]): 5 (Herbicidal rate of 90% or more (almost completely withered))
- herbicidal effect on I: wild oat (wild oat [11]): 5 (Herbicidal rate of 90% or more (almost completely withered))
- herbicidal effect rating, N: redroot pigweed (redroot pigweed [12]; 320 g/ha): 3 (Herbicidal rate of 40% or more and less than 70%)
- herbicidal effect rating, L: windgrass (windgrass [13]; 320 g/ha): 4 (Herbicidal rate of 70% or more and less than 90%)
- herbicidal effect on J: blackgrass (blackgrass [14]): 4 (Herbicidal rate of 70% or more and less than 90%)
- herbicidal effect rating, P: chickweed (chickweed [15]; 320 g/ha): 4 (Herbicidal rate of 70% or more and less than 90%)
- herbicidal effect on K: Italian ryegrass (Italian ryegrass [16]): 5 (Herbicidal rate of 90% or more (almost completely withered))
- herbicidal effect rating, K: Italian ryegrass (Italian ryegrass [17]; 320 g/ha): 5 (Herbicidal rate of 90% or more (almost completely withered))
- herbicidal effect rating, I: wild oat (wild oat [18]; 320 g/ha): 0 (Herbicidal rate of 5% or less (almost no effect))
- herbicidal effect rating, R: persian speedwell (persian speedwell [19]; 320 g/ha): 1 (Herbicidal rate of 5% or more and less than 20%)
- herbicidal effect rating, M: velvetleaf (velvetleaf [20]; 320 g/ha): 0 (Herbicidal rate of 5% or less (almost no effect))
- herbicidal effect rating, O: lambsquarters (lambsquarters [21]; 320 g/ha): 3 (Herbicidal rate of 40% or more and less than 70%)
- herbicidal effect on H (barnyard grass), rating 0-5 (barnyard grass [22]; 320 g/ha): 5 (Herbicidal rate of 90% or more (almost completely withered))
- herbicidal effect on D (Chinese sprangletop), rating 0-5 (Chinese sprangletop; 320 g/ha): 4 (Herbicidal rate of 70% or more and less than 90%)
- herbicidal effect rating, H: barnyard grass (barnyard grass [23]; 320 g/ha): 0 (Herbicidal rate of 5% or less (almost no effect))
- herbicidal effect rating, F: southern crabgrass (southern crabgrass [24]; 320 g/ha): 0 (Herbicidal rate of 5% or less (almost no effect))
- herbicidal effect on G: green foxtail (green foxtail [25]): 5 (Herbicidal rate of 90% or more (almost completely withered))

SMILES: CCCC(=O)Oc1c(C)nn(C)c(=O)c1-c1c(-c2ccc(F)cc2)sc2ccc(C)cc12 [2-135]
- herbicidal effect on F: southern crabgrass (southern crabgrass [1]): 0 (Herbicidal rate of 5% or less (almost no effect))
- herbicidal effect on L: windgrass (windgrass [2]): 0 (Herbicidal rate of 5% or less (almost no effect))
- J: blackgrass, herbicidal effect rating (blackgrass [3]; [26]): 0 (Herbicidal rate of 5% or less (almost no effect))
- herbicidal effect on O: lambsquarters (lambsquarters [4]): 3 (Herbicidal rate of 40% or more and less than 70%)
- herbicidal effect on N: redroot pigweed (redroot pigweed [5]): 5 (Herbicidal rate of 90% or more (almost completely withered))
- herbicidal effect on H: barnyard grass (barnyard grass [6]): 0 (Herbicidal rate of 5% or less (almost no effect))
- herbicidal effect on E: rice flat sedge (rice flat sedge; [26]): 3 (Herbicidal rate of 40% or more and less than 70%)
- herbicidal effect on M: velvetleaf (velvetleaf [7]): 4 (Herbicidal rate of 70% or more and less than 90%)
- herbicidal effect on R: persian speedwell (persian speedwell [8]): 1 (Herbicidal rate of 5% or more and less than 20%)
- G: green foxtail, herbicidal effect rating (green foxtail [9]; [26]): 0 (Herbicidal rate of 5% or less (almost no effect))
- herbicidal effect on P: chickweed (chickweed [10]): 5 (Herbicidal rate of 90% or more (almost completely withered))
- herbicidal effect on I: wild oat (wild oat [11]): 0 (Herbicidal rate of 5% or less (almost no effect))
- N: redroot pigweed, herbicidal effect rating (redroot pigweed [12]; [26]): 0 (Herbicidal rate of 5% or less (almost no effect))
- L: windgrass, herbicidal effect rating (windgrass [13]; [26]): 0 (Herbicidal rate of 5% or less (almost no effect))
- herbicidal effect on J: blackgrass (blackgrass [14]): 0 (Herbicidal rate of 5% or less (almost no effect))
- P: chickweed, herbicidal effect rating (chickweed [15]; [26]): 3 (Herbicidal rate of 40% or more and less than 70%)
- herbicidal effect on K: Italian ryegrass (Italian ryegrass [16]): 3 (Herbicidal rate of 40% or more and less than 70%)
- K: Italian ryegrass, herbicidal effect rating (Italian ryegrass [17]; [26]): 1 (Herbicidal rate of 5% or more and less than 20%)
- I: wild oat, herbicidal effect rating (wild oat [18]; [26]): 0 (Herbicidal rate of 5% or less (almost no effect))
- R: persian speedwell, herbicidal effect rating (persian speedwell [19]; [26]): 0 (Herbicidal rate of 5% or less (almost no effect))
- M: velvetleaf, herbicidal effect rating (velvetleaf [20]; [26]): 0 (Herbicidal rate of 5% or less (almost no effect))
- O: lambsquarters, herbicidal effect rating (lambsquarters [21]; [26]): 0 (Herbicidal rate of 5% or less (almost no effect))
- herbicidal effect on H: barnyard grass (barnyard grass [22]; [26]): 1 (Herbicidal rate of 5% or more and less than 20%)
- herbicidal effect on D: Chinese sprangletop (Chinese sprangletop; [26]): 0 (Herbicidal rate of 5% or less (almost no effect))
- H: barnyard grass, herbicidal effect rating (barnyard grass [23]; [26]): 0 (Herbicidal rate of 5% or less (almost no effect))
- F: southern crabgrass, herbicidal effect rating (southern crabgrass [24]; [26]): 0 (Herbicidal rate of 5% or less (almost no effect))
- herbicidal effect on G: green foxtail (green foxtail [25]): 0 (Herbicidal rate of 5% or less (almost no effect))
